Data: PubChem BioAssay (NCI)
Where “and” joins values, the source holds several entries; their conditions need not be identical. Equal entries are not always repeated.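 In this assay, cells in 96-well plates receive the compound at five concentrations for 48 hours. Endpoints are linearly interpolated between the surrounding concentrations. Here, GI50 denotes the concentration required for 50% inhibition of growth. At the TGI there is no net growth.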

Legend:
Assay in all cases: NCI anticancer screen, dose series, 48 h
[1] = tested on: OVCAR-4 ovarian
[2] = tested on: DU-145 prostate
[3] = tested on: COLO 205 colon
[4] = tested on: T-47D breast
[5] = tested on: MALME-3M melanoma
[6] = tested on: HCC-2998 colon
[7] = tested on: HOP-62 NSCLC
[8] = tested on: U251 CNS
[9] = tested on: NCI-H522 lung
[10] = tested on: SR leukemia
[11] = tested on: SK-OV-3 ovarian
[12] = tested on: SK-MEL-28 melanoma
[13] = tested on: CCRF-CEM leukemia
[14] = tested on: SK-MEL-5 melanoma
[15] = tested on: KM12 colon
[16] = tested on: HOP-92 NSCLC
[17] = tested on: OVCAR-3 ovarian
[18] = tested on: BT-549 breast
[19] = tested on: A549 NSCLC
[20] = tested on: RPMI-8226 leukemia
[21] = tested on: NCI/ADR-RES ovarian
[22] = tested on: MDA-MB-435
[23] = tested on: CAKI-1 renal
[24] = tested on: NCI-H226 lung
[25] = tested on: SF-268 CNS
[26] = tested on: K-562 leukemia
[27] = tested on: PC-3 prostate
[28] = tested on: SW-620 colon
[29] = tested on: SF-295 CNS
[30] = tested on: SN12C renal
[31] = tested on: NCI-H460 lung
[32] = tested on: TK-10 renal
[33] = tested on: SNB-75 CNS
[34] = tested on: LOX IMVI melanoma
[35] = tested on: HT29 colon
[36] = tested on: 786-0 renal
[37] = tested on: HCT-116 colon
[38] = tested on: UACC-62 melanoma
[39] = tested on: NCI-H23 lung
[40] = tested on: UO-31 renal
[41] = tested on: HS 578T breast
[42] = tested on: HCT-15 colon
[43] = tested on: SNB-19 CNS
[44] = tested on: ACHN renal
[45] = tested on: SF-539 CNS
[46] = tested on: EKVX NSCLC
[47] = tested on: M14 melanoma
[48] = tested on: MOLT-4 leukemia
[49] = tested on: UACC-257 melanoma
[50] = tested on: RXF 393 renal
[51] = tested on: IGROV1 ovarian
[52] = tested on: A498 renal
[53] = tested on: MCF7 breast
[54] = tested on: OVCAR-8 ovarian
[55] = tested on: MDA-N
[56] = tested on: OVCAR-5 ovarian
[57] = tested on: MDA-MB-231 breast
[58] = tested on: HL-60(TB) leukemia
[59] = tested on: SK-MEL-2 melanoma

For Cc1[nH]c2ncn(Nc3ccccc3)c(=N)c2c1Cc1ccccc1, the TGI [1] was greater than 100 µM, the TGI [2] was greater than 100 µM and the TGI [3] was greater than 100 µM. The TGI [4] was greater than 86.9 µM, the TGI [5] was greater than 100 µM and the TGI [6] was greater than 100 µM. The TGI [7] was greater than 100 µM, the TGI [8] was greater than 100 µM and the TGI [9] was greater than 100 µM. For the same compound, the TGI [10] was greater than 100 µM, the TGI [11] was greater than 100 µM and the TGI [12] was greater than 100 µM. The TGI [13] was greater than 100 µM, the TGI [14] was greater than 100 µM and the TGI [15] was greater than 56.8 µM. The TGI [16] was greater than 100 µM, the TGI [17] was greater than 100 µM and the TGI [18] was greater than 100 µM. The TGI [19] was greater than 100 µM, the TGI [20] was greater than 100 µM and the TGI [21] was greater than 100 µM. For the same compound, the TGI [22] was greater than 100 µM, the TGI [23] was greater than 70.6 µM and the TGI [24] was greater than 100 µM. The TGI [25] was greater than 100 µM, the TGI [26] was greater than 100 µM and the TGI [27] was greater than 100 µM. The TGI [28] was greater than 100 µM, the TGI [29] was greater than 100 µM and the TGI [30] was greater than 100 µM. For the same compound, the TGI [31] was greater than 100 µM, the TGI [32] was greater than 100 µM and the TGI [33] was greater than 100 µM. It also gave a TGI [34] greater than 100 µM, a TGI [35] greater than 100 µM and a TGI [36] greater than 100 µM. It also gave a TGI [37] greater than 100 µM, a TGI [38] greater than 100 µM and a TGI [39] greater than 100 µM. It also gave a TGI [40] greater than 100 µM, a TGI [41] greater than 100 µM and a TGI [42] greater than 100 µM. The TGI [43] was greater than 100 µM, the TGI [44] was greater than 100 µM and the TGI [45] was greater than 100 µM. The TGI [46] was greater than 100 µM, the TGI [47] was greater than 100 µM and the TGI [48] was greater than 100 µM. For the same compound, the TGI [49] was greater than 100 µM, the TGI [50] was greater than 91.6 µM and the TGI [51] was 98.4 µM. For the same compound, the TGI [52] was greater than 100 µM, the TGI [53] was greater than 100 µM and the TGI [54] was greater than 100 µM. The TGI [55] was greater than 100 µM, the TGI [56] was greater than 100 µM and the TGI [57] was greater than 100 µM. It also gave a TGI [58] greater than 100 µM.
Work on COc1ccc(C2CC(c3ccc4ccccc4c3O)=NN2)cc1OC (stereo not given) yielded a TGI [1] greater than 100 µM, a TGI [2] greater than 100 µM and a TGI [3] greater than 100 µM. For the same compound, the TGI [4] was greater than 100 µM, the TGI [5] was greater than 100 µM and the TGI [6] was greater than 100 µM. It also gave a TGI [7] greater than 100 µM, a TGI [8] greater than 100 µM and a TGI [9] greater than 100 µM. The TGI [10] was 46.3 µM, the TGI [11] was greater than 100 µM and the TGI [12] was greater than 100 µM. The TGI [13] was 42.6 µM, the TGI [14] was greater than 100 µM and the TGI [59] was greater than 100 µM. For the same compound, the TGI [15] was greater than 100 µM, the TGI [16] was greater than 100 µM and the TGI [17] was greater than 100 µM. The TGI [18] was 74 µM, the TGI [19] was greater than 100 µM and the TGI [20] was greater than 100 µM. It also gave a TGI [21] greater than 100 µM, a TGI [22] greater than 100 µM and a TGI [23] greater than 100 µM. The TGI [24] was greater than 100 µM, the TGI [25] was greater than 100 µM and the TGI [26] was 52.1 µM. The TGI [27] was greater than 100 µM, the TGI [28] was greater than 100 µM and the TGI [29] was greater than 100 µM. For the same compound, the TGI [30] was greater than 100 µM, the TGI [31] was greater than 100 µM and the TGI [32] was greater than 100 µM. For the same compound, the TGI [33] was greater than 100 µM, the TGI [35] was greater than 100 µM and the TGI [36] was greater than 100 µM. The TGI [37] was greater than 100 µM, the TGI [38] was greater than 100 µM and the TGI [39] was greater than 100 µM. The TGI [40] was greater than 100 µM, the TGI [41] was greater than 100 µM and the TGI [42] was greater than 100 µM. The TGI [44] was greater than 100 µM, the TGI [45] was greater than 100 µM and the TGI [47] was greater than 100 µM. For the same compound, the TGI [48] was 65.4 µM, the TGI [49] was greater than 100 µM and the TGI [50] was greater than 100 µM. For the same compound, the TGI [51] was greater than 100 µM, the TGI [52] was greater than 100 µM and the TGI [53] was greater than 100 µM. For the same compound, the TGI [54] was greater than 100 µM, the TGI [55] was 60.8 µM and the TGI [56] was greater than 100 µM. The TGI [57] was 96 µM.
In the case of CC(=O)O[C@H]1CC2C(C3CC[C@H](C(C)CCC(N)=O)[C@]31C)[C@H](OC(C)=O)C[C@@H]1CC3(CC[C@]21C)OOC1(CCC(C)CC1)OO3 (stereo not given in full), the TGI [1] is reported as 3.52 µM and 3.02 µM, the GI50 [2] is reported as 1.82 µM and the TGI [2] is reported as 3.26 µM. The TGI [3] was 3.19 µM and 3.12 µM, the TGI [4] was 4.19 µM and 4.21 µM and the TGI [5] was 9.95 µM and 4.07 µM. For the same compound, the TGI [6] was 4.57 µM and 3.96 µM, the GI50 [7] was 1.47 µM and 1.07 µM and the TGI [7] was 2.96 µM and 2.31 µM. For the same compound, the TGI [8] was 3.78 µM, the TGI [9] was 3.6 µM and 2.94 µM and the TGI [10] was 3.28 µM. For the same compound, the GI50 [11] was 4.3 µM and 2.11 µM, the TGI [11] was 16.3 µM and 3.94 µM and the GI50 [12] was 5.65 µM and 2.48 µM. The TGI [12] was 14.3 µM and 8.13 µM, the TGI [13] was 3.33 µM and 4.43 µM and the TGI [14] was 11.6 µM and 3.22 µM. The TGI [59] was 4.37 µM and 3.2 µM, the TGI [15] was 4.69 µM and 3.41 µM and the TGI [16] was 6.25 µM and 3.56 µM. For the same compound, the TGI [17] was 3.51 µM and 3.8 µM, the TGI [18] was 6.43 µM and 3.35 µM and the TGI [19] was 6.13 µM. The TGI [20] was 4.07 µM, the TGI [21] was 8.01 µM and 3.28 µM and the TGI [22] was 4.47 µM and 3.23 µM. For the same compound, the TGI [23] was 5.15 µM and 3.25 µM, the TGI [24] was 6.2 µM and 3.15 µM and the TGI [25] was 4.46 µM. The TGI [26] was 16.8 µM and 5 µM, the TGI [27] was 9.44 µM and 4.29 µM and the TGI [28] was 11.5 µM and 4.24 µM. For the same compound, the TGI [29] was 12.3 µM and 3.59 µM, the TGI [30] was 5.69 µM and 3.24 µM and the TGI [31] was 8.76 µM. For the same compound, the TGI [32] was 8.39 µM and 3.57 µM, the GI50 [33] was 1.98 µM and the TGI [33] was 4.05 µM. For the same compound, the TGI [35] was 7.01 µM, the TGI [36] was 3.78 µM and 3.2 µM and the TGI [37] was 5.36 µM and 3.72 µM. For the same compound, the GI50 [38] was 1.85 µM, the TGI [38] was 3.99 µM and the TGI [39] was 5.29 µM and 3.45 µM. The TGI [40] was 3.08 µM and 2.64 µM, the TGI [41] was 5.77 µM and 5.51 µM and the TGI [42] was 4.89 µM and 3.43 µM. For the same compound, the GI50 [43] was 5.31 µM and 2.62 µM, the TGI [43] was 19.4 µM and 5.72 µM and the TGI [44] was 3.88 µM and 2.93 µM. For the same compound, the TGI [45] was 7.1 µM and 3.37 µM, the GI50 [46] was 1.01 µM and 1.43 µM and the TGI [46] was 2.35 µM and 2.78 µM. For the same compound, the TGI [47] was 8.64 µM and 3.76 µM, the TGI [48] was 4.47 µM and 4.44 µM and the TGI [49] was 22.9 µM and 19.2 µM. The TGI [50] was 9.72 µM, the GI50 [51] was 1.54 µM and 0.491 µM and the TGI [51] was 3.07 µM and 1.84 µM. The TGI [52] was 29.3 µM and 24.4 µM, the TGI [53] was 15.2 µM and 5.01 µM and the TGI [54] was 4.56 µM and 3.12 µM. The TGI [55] was 4.91 µM, the TGI [56] was 4.86 µM and 3.66 µM and the TGI [57] was 4.94 µM. The TGI [58] was 6.13 µM and 4.82 µM.
